Assay results taken from PMC7957578, “N-(1,3,4-Oxadiazol-2-yl)Benzamides as Antibacterial Agents against Neisseria gonorrhoeae” (International Journal of Molecular Sciences, 2021).
≈ marks a conversion by molar mass, not a printed value.

How the values were obtained:
N. gonorrhoeae 165 = assay: MIC/MBC against N. gonorrhoeae clinical isolate 165; assay type: cell-based; settings: Neisseria gonorrhoeae
Description: (§1) Briefly, bacteria were grown overnight on chocolate agar II at 37° C in the presence of 5% CO2. Afterwards, a bacterial suspension equivalent to 1.0 McFarland standard was prepared and diluted in brucella broth supplemented with yeast extract, neopeptone, hematin, pyridoxal, and NAD. Test agents were added in the first row of the 96-well plates and serially diluted along the plates. Plates were then incubated at 37° C in the presence of 5% CO2 for 24 h. […] Plates were then incubated at 37 ° C in the presence of 5% CO2 for 24 h. The MBC was categorized as the lowest concentration that reduced bacterial growth by 99.9% [45, 46, 47].

N. gonorrhoeae 166 = assay: MIC/MBC against N. gonorrhoeae clinical isolate 166; assay type: cell-based; settings: Neisseria gonorrhoeae
Description: as §1

N. gonorrhoeae 194 = assay: MIC/MBC against N. gonorrhoeae clinical isolate 194; assay type: cell-based; settings: Neisseria gonorrhoeae
Description: as §1

N. gonorrhoeae 197 = assay: MIC/MBC against N. gonorrhoeae clinical isolate 197; assay type: cell-based; settings: Neisseria gonorrhoeae
Description: as §1

N. gonorrhoeae 200 = assay: MIC/MBC against N. gonorrhoeae clinical isolate 200; assay type: cell-based; settings: Neisseria gonorrhoeae
Description: as §1

N. gonorrhoeae WHO L = assay: MIC/MBC against N. gonorrhoeae WHO L reference strain; assay type: cell-based; settings: Neisseria gonorrhoeae
Description: as §1

[1] = system: panel drug-resistant pathogenic N. gonorrhoeae strains; assay: MIC/MBC against a panel of drug-resistant N. gonorrhoeae strains; assay type: cell-based, Neisseria gonorrhoeae; settings: MBC the same as or one-fold higher than MIC
MRSA USA300 = assay: MIC/MBC (CLSI broth microdilution) against MRSA USA300; assay type: cell-based, methicillin-resistant Staphylococcus aureus; settings: Staphylococcus aureus, MRSA USA300
Description: (§2) The minimum inhibitory concentrations (MICs) of the tested compounds and control drugs, linezolid, vancomycin, and gentamicin, were determined using the broth microdilution method according to the guidelines outlined by the Clinical and Laboratory Standards Institute (CLSI) against clinically relevant bacterial (Staphylococcus aureus, MRSA, Escherichia coli, Enterococcus faecalis and Enterococcus faecium strains. S. aureus, MRSA, E. coli, Enterococcus faecalis and Enterococcus faecium were grown aerobically overnight on tryptone soy agar (TSA) plates at 37° C. Afterwards, a bacterial solution equivalent to 0.5 McFarland standard was prepared and diluted in cation-adjusted Mueller–Hinton broth (CAMHB) (for S. aureus, MRSA, and E. coli) to achieve a bacterial concentration of about 5 × 10^5 CFU/mL. Enterococcus faecalis and Enterococcus faecium 0.5 McFarland standard solution was diluted in tryptone soy broth (TSB) to achieve a bacterial concentration of about 5 × 10^5 CFU/mL. Compounds and control drugs were added in the first row of 96-well plates and serially diluted with the corresponding media containing bacteria. Plates were then incubated as previously described. […] The minimum bactericidal concentration (MBC) was tested by spotting 4 µL from wells with no growth onto TSA plates. Plates were incubated at 37 ° C for at least 18 h before recording the MBC. The MBC was categorized as the lowest concentration that reduced bacterial growth by 99.9% [45, 46, 47].

E. faecalis ATCC 29212 = assay: MIC/MBC (CLSI broth microdilution) against E. faecalis ATCC 29212; assay type: cell-based; settings: Enterococcus faecalis, ATCC29212, E. faecalis ATCC 29212
Description: as §2

VRE. faecalisATCC 51575 = assay: MIC/MBC (CLSI broth microdilution) against VRE faecalis ATCC 51575; assay type: cell-based; settings: Enterococcus, VRE faecalis ATCC 51575
Description: as §2

VRE. faecalis ATCC 51299 = assay: MIC/MBC (CLSI broth microdilution) against VRE faecalis ATCC 51299; assay type: cell-based; settings: Enterococcus, VRE faecalis ATCC 51299
Description: as §2

VRE. faecium ATCC 700221 = assay: MIC/MBC (CLSI broth microdilution) against VRE faecium ATCC 700221; assay type: cell-based; settings: Enterococcus, VRE faecium ATCC 700221
Description: as §2

[2] = system: L. monocytogenes ATCC 19115; assay: MIC/MBC (CLSI broth microdilution) against L. monocytogenes ATCC 19115; assay type: cell-based; settings: Listeria monocytogenes, ATCC19115, L. monocytogenes ATCC 19115
N. gonorrhoeae = assay: MIC against N. gonorrhoeae in presence of fetal bovine serum; assay type: cell-based; settings: Neisseria gonorrhoeae, 24 h
[3] = system: human colorectal cells (Caco-2); assay: In vitro cytotoxicity, MTS assay; assay type: cell-based
Description: HSGN-237 and -238 were assayed for potential cytotoxicity against a human colorectal adenocarcinoma (Caco-2) cell line, as described previously. Briefly, tested compounds were incubated with caco-2 cells for 24 and 48 h. Then, the cells were incubated with MTS (3-(4,5-dimethylthiazol-2-yl)-5-(3-carboxymethoxyphenyl)-2-(4-sulfophenyl)-2H-tetrazolium) reagent for 4 h before measuring the absorbance values (OD490).
Figure 2 In vitro cytotoxicity assessment of HSGN-237 and -238 (tested in triplicate) against human colorectal cells (Caco-2) after (A) 24 h, and (B) 48 h, using the 3-(4,5-dimethylthiazol-2-yl)-5-(3-carboxymethoxyphenyl)-2-(4-sulfophenyl)-2H-tetrazolium (MTS) assay. Results are presented as percent viable cells relative to DMSO (negative control). Error bars represent standard deviation values. A two-way ANOVA, with post hoc Dunnet’s multiple comparisons test, determined the statistical difference between the values obtained for the compound and DMSO. Asterisks denote statistically significant differences between treatments of cells with either HSGN-237 or -238 as compared to DMSO-treated cells. The experiment was repeated 3 independent times.

[4] = system: tested bacterial strains (Table 3); assay: MBC versus MIC against the panel of Gram-positive and Gram-negative pathogens; assay type: cell-based; settings: MBCs more than three-fold higher than MICs, strains of Table 3
Description: While the focus of these new N-(1,3,4-oxadiazol-2-yl)benzamides is towards N. gonorrhoeae, we proceeded to test their activity against other Gram-positive and Gram-negative pathogens. Intriguingly, HSGN-235, HSGN-237, and HSGN-238 had potent activity against the tested Gram-positive bacterial pathogens. For instance, all three compounds had potent activity against the staphylococcal strains, with MICs ranging from 0.25 to 1 µg/mL (Table 3). Furthermore, HSGN-235, HSGN-237, and HSGN-238 maintained potent activity against clinically relevant Gram-positive bacterial pathogens such as vancomycin-resistant enterococci (VRE) and Listeria monocytogenes (Table 3). Additionally, we moved to test if HSGN-235, HSGN-237, and HSGN-238 were active against other Gram-negative bacterial pathogens. […] This lack of activity against Gram-negative bacteria appears to be due to HSGN-235, HSGN-237, and HSGN-238 being a substrate for efflux.
The minimum inhibitory concentrations (MICs) of the tested compounds and control drugs, linezolid, vancomycin, and gentamicin, were determined using the broth microdilution method according to the guidelines outlined by the Clinical and Laboratory Standards Institute (CLSI) against clinically relevant bacterial (Staphylococcus aureus, MRSA, Escherichia coli, Enterococcus faecalis and Enterococcus faecium strains. S. aureus, MRSA, E. coli, Enterococcus faecalis and Enterococcus faecium were grown aerobically overnight on tryptone soy agar (TSA) plates at 37° C. Afterwards, a bacterial solution equivalent to 0.5 McFarland standard was prepared and diluted in cation-adjusted Mueller–Hinton broth (CAMHB) (for S. aureus, MRSA, and E. coli) to achieve a bacterial concentration of about 5 × 10^5 CFU/mL. Enterococcus faecalis and Enterococcus faecium 0.5 McFarland standard solution was diluted in tryptone soy broth (TSB) to achieve a bacterial concentration of about 5 × 10^5 CFU/mL. Compounds and control drugs were added in the first row of 96-well plates and serially diluted with the corresponding media containing bacteria. […]

Question: How did the MBC (N. gonorrhoeae 165) turn out when `O=C(Nc1nnc(-c2ccc(Cl)s2)o1)c1ccc(OC(F)(F)F)cc1` [HSGN-238, N-(5-(5-Chlorothiophen-2-yl)-1,3,4-oxadiazol-2-yl)-4-(trifluoromethoxy)benzamide] was run?
Answer: 0.25 µg/mL (≈ 0.641 µM)

Question: What about the MIC (N. gonorrhoeae 165) of the same molecule?
Answer: 0.125 µg/mL (≈ 0.321 µM)

Question: What about the MBC (N. gonorrhoeae 166) of the same molecule?
Answer: 0.25 µg/mL (≈ 0.641 µM)

Question: And the MIC (N. gonorrhoeae 166)?
Answer: 0.125 µg/mL (≈ 0.321 µM)

Question: What about the MBC (N. gonorrhoeae 194) of the same molecule?
Answer: 0.125 µg/mL (≈ 0.321 µM)

Question: And the MIC (N. gonorrhoeae 194)?
Answer: 0.125 µg/mL (≈ 0.321 µM)

Question: And the MBC (N. gonorrhoeae 197)?
Answer: 0.125 µg/mL (≈ 0.321 µM)

Question: What about the MIC (N. gonorrhoeae 197) of the same molecule?
Answer: 0.125 µg/mL (≈ 0.321 µM)

Question: And the MBC (N. gonorrhoeae 200)?
Answer: 0.125 µg/mL (≈ 0.321 µM)

Question: And the MIC (N. gonorrhoeae 200)?
Answer: 0.125 µg/mL (≈ 0.321 µM)

Question: What about the MBC (N. gonorrhoeae WHO L) of the same molecule?
Answer: 0.125 µg/mL (≈ 0.321 µM)

Question: And the MIC (N. gonorrhoeae WHO L)?
Answer: 0.06 µg/mL (≈ 0.154 µM)

Question: And the “type of activity from MBC versus MIC” value [1]?
Answer: bactericidal activity

Question: And the MBC (MRSA USA300; read-out: MBC)?
Answer: 16 µg/mL (≈ 41.1 µM)

Question: What about the MIC (MRSA USA300; read-out: MIC) of the same molecule?
Answer: 0.25 µg/mL (≈ 0.641 µM)

Question: And the MBC (E. faecalis ATCC 29212; read-out: MBC)?
Answer: 32 µg/mL (≈ 82.1 µM)

Question: And the MIC (E. faecalis ATCC 29212; read-out: MIC)?
Answer: 1 µg/mL (≈ 2.57 µM)

Question: What about the MBC (VRE. faecalisATCC 51575; read-out: MBC) of the same molecule?
Answer: 32 µg/mL (≈ 82.1 µM)

Question: What about the MIC (VRE. faecalisATCC 51575; read-out: MIC) of the same molecule?
Answer: 1 µg/mL (≈ 2.57 µM)

Question: What about the MBC (VRE. faecalis ATCC 51299; read-out: MBC) of the same molecule?
Answer: 8 µg/mL (≈ 20.5 µM)

Question: And the MIC (VRE. faecalis ATCC 51299; read-out: MIC)?
Answer: 0.25 µg/mL (≈ 0.641 µM)

Question: What about the MBC (VRE. faecium ATCC 700221; read-out: MBC) of the same molecule?
Answer: 8 µg/mL (≈ 20.5 µM)

Question: And the MIC (VRE. faecium ATCC 700221; read-out: MIC)?
Answer: 0.25 µg/mL (≈ 0.641 µM)

Question: What about the MBC ([2]; read-out: MBC) of the same molecule?
Answer: 32 µg/mL (≈ 82.1 µM)

Question: What about the MIC ([2]; read-out: MIC) of the same molecule?
Answer: 0.5 µg/mL (≈ 1.28 µM)

Question: And the MIC (N. gonorrhoeae; 1% FBS added to the media)?
Answer: 0.25 µg/mL

Question: What about the MIC (N. gonorrhoeae; 5% FBS added to the media) of the same molecule?
Answer: 1 µg/mL

Question: What about the MIC (N. gonorrhoeae; 10% FBS added to the media) of the same molecule?
Answer: 1 µg/mL

Question: What about the non-toxic concentration ([3]; Caco-2 cells, 24 and 48 h, MTS assay) of the same molecule?
Answer: up to 16 µg/mL

Question: And the “non-toxic concentration relative to MIC against N. gonorrhoeae” value ([3]; Caco-2 non-toxic concentration versus corresponding MIC)?
Answer: 128 times

Question: What about the “type of activity from MBC versus MIC” value [4] of the same molecule?
Answer: bacteriostatic agents
